Results reported in article PMC4850841 (Journal of medicinal chemistry, 2013).
Where two headings read alike, the source gives them in different places.

How the values were obtained:
GluN1/GluN2A = GluN1/GluN2A (Rattus norvegicus, UniProt Q00959); assay: Two electrode voltage clamp recordings, Xenopus laevis oocytes; type: cell-based; details: 100 µM glutamate, 30 µM glycine
GluN1/GluN2B = GluN1/GluN2B (Rattus norvegicus, UniProt Q00960); assay: as above; type: cell-based; details: 100 µM glutamate, 30 µM glycine
GluA1 = GluA1 (Rattus norvegicus, UniProt P19490); assay: as above; type: cell-based; details: co-applied with 100 µM glutamate
GluK2 = GluK2 (Rattus norvegicus, UniProt P42260); assay: as above; type: cell-based; details: co-applied with 100 µM glutamate
[1] = test system: GluN2C/D-containing NMDA receptors; assay: Potentiation of NMDA receptors, results stated jointly for both subtypes; type: cell-based, rat; details: for EC50: read-out: EC50, GluN2C/GluN2D stated jointly
GluN1/GluN2C [2] = target: GluN1/GluN2C (Rattus norvegicus, UniProt P35439+Q00961); assay: Two electrode voltage clamp recordings, Xenopus laevis oocytes; type: cell-based
[3] = Stability of potentiator activity of compound solution; type: physicochemical
[4] = test system: GluN2C/D-containing NMDA receptors; details: cited from earlier work
GluN1/GluN2C [5] = target: GluN1/GluN2C (Rattus norvegicus, UniProt Q00961); assay: Two electrode voltage clamp recordings, Xenopus laevis oocytes; type: cell-based; details: for activity at GluN1/GluN2C: 100 µM glutamate, 30 µM glycine
GluN1/GluN2D = GluN1/GluN2D (Rattus norvegicus, UniProt Q62645); assay: as above; type: cell-based; details: for activity at GluN1/GluN2D: 100 µM glutamate, 30 µM glycine
[6] = test system: GABA, glycine, serotonin, nicotinic acetylcholine, AMPA, kainate, and purinergic receptors; type: cell-based
[7] = test system: brain benzodiazepine site; type: binding; details: 5 µM compound 83; n=4
sigma receptor σ1 = type: binding; details: 5 µM compound 83; n=4
κ opioid receptors = κ opioid receptors (Homo sapiens, UniProt P41145); type: binding; details: 5 µM compound 83
[8] = test system: peripheral benzodiazepine site; type: binding; details: 5 µM compound 83; n=4
sigma receptor σ2 = type: binding; details: 5 µM compound 83; n=4
[9] = maximally effective concentrations of glutamate and glycine
[10] = 10 µM compound co-applied with 100 µM glutamate and 30 µM glycine

GluN1/GluN2A, sequence (Q00959 23-1464, other chains not shown): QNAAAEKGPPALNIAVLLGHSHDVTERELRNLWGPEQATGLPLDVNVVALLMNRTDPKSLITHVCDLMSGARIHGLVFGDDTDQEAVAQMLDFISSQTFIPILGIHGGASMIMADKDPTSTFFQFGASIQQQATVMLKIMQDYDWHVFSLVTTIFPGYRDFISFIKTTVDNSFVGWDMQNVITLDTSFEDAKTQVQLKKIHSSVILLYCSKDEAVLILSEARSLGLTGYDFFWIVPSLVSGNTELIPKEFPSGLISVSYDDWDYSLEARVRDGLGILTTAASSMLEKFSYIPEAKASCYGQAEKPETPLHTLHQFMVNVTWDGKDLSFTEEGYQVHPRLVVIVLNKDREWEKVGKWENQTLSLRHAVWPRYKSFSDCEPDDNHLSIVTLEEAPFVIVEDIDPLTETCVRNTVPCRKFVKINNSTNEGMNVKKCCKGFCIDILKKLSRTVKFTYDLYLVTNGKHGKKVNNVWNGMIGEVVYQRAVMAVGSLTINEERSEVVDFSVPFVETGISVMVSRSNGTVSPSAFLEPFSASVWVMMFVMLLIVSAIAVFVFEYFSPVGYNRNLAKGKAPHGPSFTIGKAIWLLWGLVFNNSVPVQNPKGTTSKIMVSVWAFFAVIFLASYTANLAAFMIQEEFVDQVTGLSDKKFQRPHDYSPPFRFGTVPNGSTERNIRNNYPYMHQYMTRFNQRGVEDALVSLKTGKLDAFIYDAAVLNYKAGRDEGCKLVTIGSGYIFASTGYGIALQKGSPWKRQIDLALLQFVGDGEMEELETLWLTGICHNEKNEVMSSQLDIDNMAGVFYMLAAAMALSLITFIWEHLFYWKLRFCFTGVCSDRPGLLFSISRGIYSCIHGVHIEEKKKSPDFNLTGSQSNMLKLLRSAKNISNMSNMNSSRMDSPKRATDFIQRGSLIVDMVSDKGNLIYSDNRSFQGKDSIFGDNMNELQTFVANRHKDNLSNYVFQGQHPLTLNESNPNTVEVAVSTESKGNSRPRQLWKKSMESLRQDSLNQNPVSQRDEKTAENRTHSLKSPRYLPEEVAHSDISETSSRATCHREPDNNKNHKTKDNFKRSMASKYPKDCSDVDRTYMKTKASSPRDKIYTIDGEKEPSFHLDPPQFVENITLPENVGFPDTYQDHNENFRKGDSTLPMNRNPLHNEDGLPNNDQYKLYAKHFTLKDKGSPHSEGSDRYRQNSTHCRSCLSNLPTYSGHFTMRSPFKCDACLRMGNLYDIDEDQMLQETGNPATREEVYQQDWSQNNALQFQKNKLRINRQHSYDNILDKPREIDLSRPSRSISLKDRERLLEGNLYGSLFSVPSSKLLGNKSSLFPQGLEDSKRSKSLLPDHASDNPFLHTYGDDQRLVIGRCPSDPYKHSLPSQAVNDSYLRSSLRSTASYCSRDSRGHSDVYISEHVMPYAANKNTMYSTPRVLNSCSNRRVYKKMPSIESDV
GluN1/GluN2C (Rattus norvegicus, UniProt Q00961), sequence (Q00961 20-1237, other chains not shown): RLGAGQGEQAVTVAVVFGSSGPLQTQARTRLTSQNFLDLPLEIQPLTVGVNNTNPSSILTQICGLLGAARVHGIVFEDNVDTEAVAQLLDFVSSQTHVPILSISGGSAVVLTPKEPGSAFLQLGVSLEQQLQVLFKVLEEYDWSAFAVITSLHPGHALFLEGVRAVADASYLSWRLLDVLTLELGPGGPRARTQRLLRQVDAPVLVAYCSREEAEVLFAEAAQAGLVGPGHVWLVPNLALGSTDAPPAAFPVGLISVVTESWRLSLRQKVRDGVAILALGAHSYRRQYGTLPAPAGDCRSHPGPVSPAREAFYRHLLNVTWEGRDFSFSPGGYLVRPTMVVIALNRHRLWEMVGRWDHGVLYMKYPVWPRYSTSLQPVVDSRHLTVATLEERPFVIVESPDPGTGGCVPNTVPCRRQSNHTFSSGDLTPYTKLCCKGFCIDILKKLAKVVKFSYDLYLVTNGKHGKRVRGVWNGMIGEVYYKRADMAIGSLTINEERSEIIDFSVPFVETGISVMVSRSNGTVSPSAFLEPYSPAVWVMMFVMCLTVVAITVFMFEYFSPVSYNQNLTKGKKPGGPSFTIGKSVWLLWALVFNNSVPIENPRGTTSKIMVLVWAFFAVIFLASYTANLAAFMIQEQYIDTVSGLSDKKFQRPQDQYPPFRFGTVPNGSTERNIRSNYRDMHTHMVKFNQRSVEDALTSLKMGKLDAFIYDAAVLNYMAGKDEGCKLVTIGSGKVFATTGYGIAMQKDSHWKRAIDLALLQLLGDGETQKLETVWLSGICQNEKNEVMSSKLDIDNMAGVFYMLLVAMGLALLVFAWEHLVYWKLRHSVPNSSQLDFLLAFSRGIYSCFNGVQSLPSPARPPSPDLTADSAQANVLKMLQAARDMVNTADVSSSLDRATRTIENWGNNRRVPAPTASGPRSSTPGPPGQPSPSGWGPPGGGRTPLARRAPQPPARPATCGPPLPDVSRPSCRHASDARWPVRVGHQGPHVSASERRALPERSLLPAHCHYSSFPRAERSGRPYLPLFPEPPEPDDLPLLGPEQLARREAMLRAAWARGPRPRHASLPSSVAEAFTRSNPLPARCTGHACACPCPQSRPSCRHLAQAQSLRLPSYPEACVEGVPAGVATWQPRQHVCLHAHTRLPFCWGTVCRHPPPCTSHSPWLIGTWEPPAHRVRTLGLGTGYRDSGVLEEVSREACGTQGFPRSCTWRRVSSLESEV
GluK2, sequence (P42260 32-908): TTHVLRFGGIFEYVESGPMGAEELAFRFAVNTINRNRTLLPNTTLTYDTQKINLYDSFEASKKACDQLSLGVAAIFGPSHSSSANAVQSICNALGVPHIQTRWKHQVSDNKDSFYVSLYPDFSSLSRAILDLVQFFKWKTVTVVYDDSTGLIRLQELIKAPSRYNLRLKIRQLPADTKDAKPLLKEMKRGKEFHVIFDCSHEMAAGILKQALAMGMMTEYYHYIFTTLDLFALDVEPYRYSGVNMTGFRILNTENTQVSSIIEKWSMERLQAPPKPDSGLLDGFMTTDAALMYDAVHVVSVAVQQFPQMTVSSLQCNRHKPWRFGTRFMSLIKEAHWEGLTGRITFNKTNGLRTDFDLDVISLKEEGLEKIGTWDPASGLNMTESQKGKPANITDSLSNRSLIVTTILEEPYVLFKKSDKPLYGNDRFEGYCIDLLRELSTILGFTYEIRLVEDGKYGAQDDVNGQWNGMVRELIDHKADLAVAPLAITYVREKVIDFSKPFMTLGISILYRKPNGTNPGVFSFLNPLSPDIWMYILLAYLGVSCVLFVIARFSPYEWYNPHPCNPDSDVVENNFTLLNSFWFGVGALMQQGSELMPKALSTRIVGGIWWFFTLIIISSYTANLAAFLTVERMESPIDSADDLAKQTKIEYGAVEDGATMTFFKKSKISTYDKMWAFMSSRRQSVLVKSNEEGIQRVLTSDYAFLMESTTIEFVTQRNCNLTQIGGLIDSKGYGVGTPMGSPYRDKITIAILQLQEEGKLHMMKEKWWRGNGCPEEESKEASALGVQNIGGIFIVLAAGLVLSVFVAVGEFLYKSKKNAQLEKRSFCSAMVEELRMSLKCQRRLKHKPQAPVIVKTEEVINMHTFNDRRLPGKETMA
GluA1, sequence (P19490 19-907): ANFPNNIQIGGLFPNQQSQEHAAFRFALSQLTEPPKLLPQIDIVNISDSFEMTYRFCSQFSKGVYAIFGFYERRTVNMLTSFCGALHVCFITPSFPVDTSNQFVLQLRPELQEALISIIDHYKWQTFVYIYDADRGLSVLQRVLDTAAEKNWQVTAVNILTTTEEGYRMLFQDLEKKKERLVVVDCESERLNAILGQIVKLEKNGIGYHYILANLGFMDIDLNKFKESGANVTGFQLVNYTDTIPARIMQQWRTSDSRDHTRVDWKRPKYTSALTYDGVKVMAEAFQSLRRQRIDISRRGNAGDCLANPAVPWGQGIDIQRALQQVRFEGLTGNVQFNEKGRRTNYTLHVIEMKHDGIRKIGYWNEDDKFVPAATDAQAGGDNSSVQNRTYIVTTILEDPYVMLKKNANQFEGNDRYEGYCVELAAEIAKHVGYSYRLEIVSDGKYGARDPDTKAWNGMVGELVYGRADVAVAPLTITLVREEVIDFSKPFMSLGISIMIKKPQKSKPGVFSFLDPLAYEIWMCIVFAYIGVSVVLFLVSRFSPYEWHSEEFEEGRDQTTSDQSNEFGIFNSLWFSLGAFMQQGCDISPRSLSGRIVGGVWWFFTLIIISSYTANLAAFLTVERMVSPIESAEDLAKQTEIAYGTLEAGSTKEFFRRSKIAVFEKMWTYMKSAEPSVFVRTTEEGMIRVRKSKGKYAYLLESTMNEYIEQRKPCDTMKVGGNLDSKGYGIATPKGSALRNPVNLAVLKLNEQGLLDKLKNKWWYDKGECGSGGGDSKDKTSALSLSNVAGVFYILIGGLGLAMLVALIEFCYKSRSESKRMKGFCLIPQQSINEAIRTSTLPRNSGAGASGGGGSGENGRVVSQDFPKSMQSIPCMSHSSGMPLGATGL
GluN1/GluN2C (Rattus norvegicus, UniProt P35439+Q00961), sequence (Q00961 20-1237, other chains not shown): as the sequence (Q00961 20-1237, other chains not shown) above
κ opioid receptors, sequence (P41145 whole entry): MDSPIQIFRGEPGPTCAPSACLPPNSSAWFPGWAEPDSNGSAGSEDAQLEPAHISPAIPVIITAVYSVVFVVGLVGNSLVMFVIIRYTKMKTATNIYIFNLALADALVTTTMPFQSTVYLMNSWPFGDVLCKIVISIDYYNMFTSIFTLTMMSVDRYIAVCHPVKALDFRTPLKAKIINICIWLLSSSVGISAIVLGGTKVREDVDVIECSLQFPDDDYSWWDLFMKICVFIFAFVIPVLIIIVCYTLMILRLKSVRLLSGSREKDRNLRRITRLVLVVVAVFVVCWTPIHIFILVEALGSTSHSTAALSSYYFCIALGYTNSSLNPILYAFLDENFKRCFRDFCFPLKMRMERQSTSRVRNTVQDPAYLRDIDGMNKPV

| Compound | effect on GluN1/GluN2A responses (GluN1/GluN2A) | effect on GluN1/GluN2B responses (GluN1/GluN2B) | effect on homomeric GluA1 responses (GluA1) | effect on GluK2-mediated currents (GluK2) | activity at GluN1/GluN2C (GluN1/GluN2C [5]) | activity at GluN1/GluN2D (GluN1/GluN2D) | also measured |
| --- | --- | --- | --- | --- | --- | --- | --- |
| COc1ccc(OC[C@@H]2c3cc(OC)c(OC)cc3CCN2C(=O)c2cccc(Cl)c2)cc1 [2-S, (S)-(3-chlorophenyl)(6,7-dimethoxy-1-((4-methoxyphenoxy)methyl)-3,4-dihydroisoquinolin-2(1H)-yl)methanone] | no effect | no effect | – | – | – | – | – |
| COc1ccc(OCC2c3cc(OC)c(OC)cc3CCN2C(=O)c2ccccc2)cc1 (stereo not shown) [compound 1, (6,7-dimethoxy-1-((4-methoxyphenoxy)methyl)-3,4-dihydroisoquinolin-2(1H)-yl)(phenyl)methanone] | – | – | no effects | no effect | – | – | enhancement of response of GluN2C/D-containing NMDA receptors [1, 9]: 1.5 fold; agonist activity on their own ([1]; without co-agonists): no agonist activity |
| COc1ccc(OCC2c3cc(OC)c(OC)cc3CCN2C(=O)c2cccc(Cl)c2)cc1 (stereo not shown) [compound 2] | – | – | no effects | no effect | – | – | EC50 (GluN1/GluN2C [2]): 4.6 µM; EC50 [1, 9]: 4.6 to 5 µM; activity of solution after 24 hours ([3]; 24 hours after making the solution): no activity; activity (potency and efficacy) retained without loss until ([3]; compound solutions tested on GluN1/GluN2C in BHK cells at different time points): 6 h; enhancement of receptor responses [4]: less than 2 fold; EC50 ([4]; read-out: reported EC50): 3 µM |
| COc1cc2c(cc1OC)CN(C(=O)c1ccccc1)CC2 [compound 5, (6,7-dimethoxy-3,4-dihydroisoquinolin-2(1H)-yl)(phenyl)methanone] | inactive | inactive | no effects | – | inactive | inactive | – |
| COc1cc2c(cc1OC)CN(C(=O)c1cccc(Cl)c1)CC2 [compound 6, (3-chlorophenyl)(6,7-dimethoxy-3,4-dihydroisoquinolin-2(1H)-yl)methanone] | inactive | inactive | – | – | inactive | inactive | – |
| COc1cc2c(cc1OC)CN(C(=O)c1cccc(Br)c1)CC2 [compound 7, (3-bromophenyl)(6,7-dimethoxy-3,4-dihydroisoquinolin-2(1H)-yl)methanone] | inactive | inactive | – | – | inactive | inactive | – |
| COc1ccc(OCC2c3ccc(OCc4ccccc4)cc3CCN2C(=O)c2cccc(Br)c2)cc1 (stereo not shown) [compound 83, (6-(benzyloxy)-1-((4-methoxyphenoxy)methyl)-3,4-dihydroisoquinolin-2(1H)-yl)(3-bromophenyl)methanone] | – | – | – | – | – | – | selectivity for GluN2C or GluN2D compared to these receptors [6]: approximately 100 fold; inhibition of off-target receptors ([6]; 3 µM compound 83): less than 10%; potentiation of off-target receptors ([6]; 3 µM compound 83): < 5%; inhibition of ligand binding [7]: less than 50%; EC50 [1, 9]: 0.3 to 0.4 µM; inhibition of ligand binding (sigma receptor σ1): less than 50%; initial screen at κ opioid receptors (κ opioid receptors): significant inhibition; inhibition of ligand binding [8]: less than 50%; inhibition of ligand binding (sigma receptor σ2): less than 50% |
| COc1ccc(OCC2c3cc(OC)c(OC)cc3CCN2C(=O)c2cccc(Br)c2)cc1 (stereo not shown) [compound 190] | – | – | no effects | no effect | – | – | – |
| COc1ccc(OCC2c3cc(OC)c(OC)cc3CCN2C(=O)c2cccc(F)c2)cc1 (stereo not shown) [compound 197] | – | – | no effects | no effect | – | – | – |
| COc1ccc(OCC2c3cc(OC)c(OC)cc3CCN2C(=O)c2cccs2)cc1 (stereo not shown) [compound 203] | – | – | – | – | weak activity | no or minimal potentiating effects | – |
| COC(=O)c1ccc(OCC2c3cc(OC)c(OC)cc3CCN2C(=O)c2cccc(Br)c2)cc1 (stereo not shown) [compound 207] | – | – | – | – | weakly active | – | – |
| (1-((4-(benzyloxy)phenoxy)methyl)-6,7-dimethoxy-3,4-dihydroisoquinolin-2(1H)-yl)(3-chlorophenyl)methanone [compound 109] | – | – | – | – | – | – | I10 µM / ICONTROL (mean ± SEM, %) GluN2C (GluN1/GluN2C [5]; [10]): 93 ± 1.6%; I10 µM / ICONTROL (mean ± SEM, %) GluN2D (GluN1/GluN2D; [10]): 93 ± 2.5%; activity on GluN2C- or GluN2D-containing receptors [1]: no detectable activity |
